Measured values reported in PMC4974736, “Corynebacterium glutamicum possesses β-N-acetylglucosaminidase” (BMC Microbiology, 2016).

Experiments:
Format in all cases: biochemical
ChiB = target: T1, ChiB (Serratia marcescens, UniProt P11797); experiment: p-nitrophenol release at […] nm; details: 100 mM phosphate pH 7.0; cell extract and supernatant of overexpressing C. glutamicum; turnover only
T1 construct: native form or fused to TAT signal peptide of Cg0955 (SP0955); pEKEx3 in C. glutamicum; cell extract and supernatant, not purified
T1 sequence (P11797 1-499 limits assumed): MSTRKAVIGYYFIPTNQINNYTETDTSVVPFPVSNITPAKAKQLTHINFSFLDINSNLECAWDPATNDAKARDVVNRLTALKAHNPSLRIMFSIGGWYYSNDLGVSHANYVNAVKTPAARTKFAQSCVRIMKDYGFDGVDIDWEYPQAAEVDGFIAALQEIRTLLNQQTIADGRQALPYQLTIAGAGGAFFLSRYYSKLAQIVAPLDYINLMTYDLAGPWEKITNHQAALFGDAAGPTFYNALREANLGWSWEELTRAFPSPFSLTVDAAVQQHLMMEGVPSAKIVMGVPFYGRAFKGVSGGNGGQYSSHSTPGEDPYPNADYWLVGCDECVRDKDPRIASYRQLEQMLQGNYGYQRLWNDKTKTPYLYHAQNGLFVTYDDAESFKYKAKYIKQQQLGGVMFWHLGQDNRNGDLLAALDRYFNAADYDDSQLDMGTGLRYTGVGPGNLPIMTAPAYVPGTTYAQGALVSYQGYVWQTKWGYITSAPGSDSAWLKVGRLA

[1] = target: T2, NagA2 fused to the C. glutamicum PhoD signal peptide (PhoD-nagA2) (Corynebacterium glutamicum, UniProt Q8NLT5); experiment: p-nitrophenol release at […] nm, Eadie-Hofstee plot; details: 100 mM phosphate pH 7.0; culture supernatant of overexpressing C. glutamicum
T2 construct: gene Cgl2852; native signal peptide replaced by TAT signal peptide of PhoD (cg2485), expected to be cleaved on export; pEKEx3 in C. glutamicum; culture supernatant, not purified
T2 sequence (Q8NLT5 entry or part of it): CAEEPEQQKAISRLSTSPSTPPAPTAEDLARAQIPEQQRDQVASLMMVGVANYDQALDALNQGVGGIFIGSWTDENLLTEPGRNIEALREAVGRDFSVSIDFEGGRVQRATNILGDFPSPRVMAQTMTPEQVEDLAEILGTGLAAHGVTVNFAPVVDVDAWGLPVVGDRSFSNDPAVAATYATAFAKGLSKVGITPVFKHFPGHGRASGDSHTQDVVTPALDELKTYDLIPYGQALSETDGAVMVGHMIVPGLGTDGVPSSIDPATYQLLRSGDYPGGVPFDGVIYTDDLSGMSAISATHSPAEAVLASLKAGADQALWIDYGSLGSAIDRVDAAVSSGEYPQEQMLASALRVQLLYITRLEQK

[2] = target: T3, NagA2 lacking its own signal peptide (SP-less-nagA2) (Corynebacterium glutamicum, UniProt Q8NLT5); experiment: p-nitrophenol release at […] nm, Eadie-Hofstee plot; details: 100 mM phosphate pH 7.0; cell extract fraction of overexpressing C. glutamicum
T3 construct: gene Cgl2852; predicted native signal peptide removed; overexpressed from pEKEx3 in C. glutamicum; cell extract, not purified
T3 sequence (Q8NLT5 entry or part of it): as above

NagZ = target: T4, NagZ (Bacillus subtilis, UniProt P40406); experiment: p-nitrophenol release at […] nm; details: 100 mM phosphate pH 7.0; cell extract of overexpressing C. glutamicum; turnover only
T4 construct: codon-optimized synthetic gene in pEKEx3, overexpressed in C. glutamicum; cell extract, not purified
T4 sequence (P40406 17-642): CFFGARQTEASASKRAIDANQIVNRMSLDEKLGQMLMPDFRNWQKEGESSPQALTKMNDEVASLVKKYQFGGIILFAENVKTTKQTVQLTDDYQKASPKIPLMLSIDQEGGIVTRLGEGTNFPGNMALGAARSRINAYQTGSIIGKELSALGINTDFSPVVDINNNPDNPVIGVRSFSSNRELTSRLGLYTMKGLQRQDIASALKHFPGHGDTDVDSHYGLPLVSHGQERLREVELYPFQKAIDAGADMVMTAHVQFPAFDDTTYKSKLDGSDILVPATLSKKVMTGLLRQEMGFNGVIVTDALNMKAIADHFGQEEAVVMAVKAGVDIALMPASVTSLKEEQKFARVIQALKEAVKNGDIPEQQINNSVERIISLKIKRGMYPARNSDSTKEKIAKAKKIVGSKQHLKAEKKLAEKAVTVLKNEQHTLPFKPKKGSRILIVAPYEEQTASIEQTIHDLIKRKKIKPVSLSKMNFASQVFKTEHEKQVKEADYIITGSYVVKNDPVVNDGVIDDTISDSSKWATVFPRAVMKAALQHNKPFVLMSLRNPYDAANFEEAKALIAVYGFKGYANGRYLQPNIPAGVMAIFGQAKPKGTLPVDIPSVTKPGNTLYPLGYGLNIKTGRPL

Row | Structure (SMILES) | p-nitrophenol release at 405 nm (ChiB) | Km [1] [µM] | Km [2] [µM] | p-nitrophenol release at 405 nm (NagZ)
1 | CC(=O)N[C@H]1[C@H](Oc2ccc([N+](=O)[O-])cc2)O[C@H](CO)[C@@H](O[C@@H]2O[C@H](CO)[C@@H](O)[C@H](O)[C@H]2NC(C)=O)[C@@H]1O [4-nitrophenyl N,N’-diacetyl-β-D-chitobioside] | chitinase activity was quantified by measuring the hydrolysis of p-nitrophenol from 4-Nitrophenyl N,N’-diacetyl-β-D-chitobioside | 270 ± 66 | 266 ± 37 | –
2 | CC(=O)N[C@H]1[C@H](Oc2ccc([N+](=O)[O-])cc2)O[C@H](CO)[C@@H](O)[C@@H]1O [4-Nitrophenyl N-acetyl-β-D-glucosaminide] | – | – | – | NagZ produced in C. glutamicum led to an intracellular specific activity of N-acetylglucosaminidase
